Results from patent US12678488B2, “Batch management method for improving farrowing rate or number of piglets born alive in swine” (priority 2024, dated 2026).
Entries after “also recorded” stand apart in the source; their conditions may differ.

Test system: estradiol
Assay: Peripheral blood estradiol level in gilts after insemination by radioimmunoassay (Example 4)
Format: in vivo, pigs
Settings: once low-dose 12-20 μg/kg·BW, day 2-day 16 after mating
Description: The breed of the gilts used in this experiment was Landrace x Large White binary sows, the gilts were randomly divided into the following 3 groups, and the treatment method for each group was as follows:
batch farrowing with FTAI: the gilts were fed with an altrenogest oral solution at 20 mg/gilt at the same time every day, for 18 days; PMSG at 1000 IU/gilt was injected intramuscularly 42 h after the last feeding with altrenogest, GnRH at 100 μg/gilt was injected intramuscularly after another 80 h, the first timed insemination was performed 24 h after the injection of GnRH, and the second timed insemination was performed after 24 h. […]
Peripheral blood was collected from the gilts in the batch farrowing with FTAI and the batch farrowing with FTAI with supplementing with a single low dose of 1-[bis(4-cyanophenyl)methyl]-1,2,4-triazole at different times after mating, i.e., days 2, 4, 10 12, and 16 after mating, blood was collected from the anterior vena cava of the gilts and centrifuged, the supernatant was taken, stored at −20° C., and then detected for estradiol level by radioimmunoassay.
The detection steps were as follows: 12×75 mm disposable tubes were arranged on a tube rack, and were a total radioactivity counting (tc) tube, a non-specific binding (NSB) tube, a zero standard (0) tube, standard tubes, and sample tubes, respectively. […]

N#Cc1ccc(C(c2ccc(C#N)cc2)n2cncn2)cc1 [1-[bis(4-cyanophenyl)methyl]-1,2,4-triazole]
blood estradiol (estrogen) level after mating: no obvious change; also recorded: no significant effect
